One assay deals with T1, hematopoietic prostaglandin D synthase (H-PGDS) (Homo sapiens, UniProt O60760).
T1 construct: Full length human H-PGDS cDNA (Invitrogen Ultimate ORF IOH13026) was amplified by PCR; 6-His (N); TEV protease cleavage site (N); made in house; host or cells: E. coli BL21 (DE3*), vector pET22b+
T1 sequence (O60760 whole entry): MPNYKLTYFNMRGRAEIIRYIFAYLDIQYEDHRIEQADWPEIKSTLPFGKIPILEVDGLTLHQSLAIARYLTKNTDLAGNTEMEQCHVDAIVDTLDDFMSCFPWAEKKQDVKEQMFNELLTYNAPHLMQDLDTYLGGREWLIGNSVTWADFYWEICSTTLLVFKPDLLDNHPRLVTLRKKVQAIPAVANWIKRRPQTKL
The experiment in a line: H-PGDS RapidFire High Throughput Mass Spectrometry Assay. The note with it: conversion of PGH2 to PGD2 by human H-PGDS, 10 nM enzyme. Format: biochemical. The protocol:
The H-PGDS RapidFire™ mass spectrometric assay monitors conversion of prostaglandin H2 (PGH2) to prostaglandin D2 (PGD2) by hematopoietic prostaglandin D synthase (H-PGDS). In the assay format described here, the substrate (PGH2) is formed in situ by the action of cyclooxygenase-2 on arachidonic acid. This first step is set up to be fast, and generates a burst of PGH2 at ˜10 μM. The PGH2 is then further converted to PGD2 by the H-PGDS enzyme. […] Plates are then read on the RapidFire™ high throughput solid phase extraction system (Agilent) which incorporates a solid phase extraction step coupled to a triple quadrupole mass spectrometer (AB SCIEX). Relative levels of PGD2 and PGF2α, which acts as a surrogate for substrate, are measured and a percent conversion calculated. Inhibitors are characterized as compounds which lower the conversion of PGH2 to PGD2.
Full length human H-PGDS cDNA (Invitrogen Ultimate ORF IOH13026) was amplified by PCR with the addition of a 5′ 6-His tag and TEV protease cleavage site. The PCR product was digested with NdeI and XhoI and ligated into pET22b+ (Merck Novagen®). Expression was carried out in E. coli strain BL21 (DE3*) using auto-induction Overnight Express™ Instant TB medium (Merck Novagen®) supplemented with 1% glycerol. The culture was first grown at 37° C. and the temperature was reduced to 25° C. when OD600 reached 2.0. Cells were harvested by centrifugation after a further 18 hours. 10 g of E. coli cell pellet was suspended to a total volume of 80 mL in lysis buffer (20 mM Tris-Cl pH 7.5, 300 mM NaCl, 20 mM imidazole, 5 mM β-mercaptoethanol, 10% glycerol). 1 mg/mL protease inhibitors (Protease Inhibitor Cocktail Set III, Merck Calbiochem®) and 1 mg/mL lysozyme were added to the cell suspension. The suspension was then sonicated for 5 min (Ultrasonic Processor VCX 750, Cole-Parmer Instrument Co.) with a micro probe (50% amplitude, 10 sec on/off) and then centrifuged at 100,000 g for 90 minutes (at 4° C.). The supernatant was loaded onto a Ni-NTA HiTrap column (5 mL, GE Healthcare, pre-equilibrated in lysis buffer). The column was washed with 10 column volumes of lysis buffer and eluted with lysis buffer containing 500 mM imidazole. The pooled protein peak fractions were concentrated using a 10 kDa centrifugal filter at 3500 g and 4° C. (Amicon Ultra-15 centrifugal filter unit with Ultracel-10 membrane from Millipore). Further purification of the concentrated protein was carried out using gel filtration chromatography on a HiLoad 26/600 Superdex75 preparative grade column (GE Healthcare Life Sciences) using 50 mM Tris pH 7.5, 50 mM NaCl, 1 mM dithiothreitol, 1 mM MgCl2. Fractions containing the protein were pooled, concentrated as described above, and stored at −80° C.
The full length human COX-2 gene (accession number L15326) was amplified by PCR to generate an EcoRI-Hindi 11 fragment containing an in-frame FLAG tag. This was subcloned into pFastBac 1 (Invitrogen). The COX-2 FLAG plasmid was recombined into the baculovirus genome according to the BAC-to-BAC protocol described by Invitrogen. Transfection into Spodoptera frugiperda (Sf9) insect cells was performed using Cellfectin (Invitrogen), according to the manufacturer's protocol. Super Sf9 cells were cultured in EX420 media (SAFC Biosciences) to a density of approximately 1.5×10^6 cells/mL within a wave bioreactor. Recombinant virus was added at a Multiplicity of Infection (MOI) of 5 and the culture was allowed to continue for 3 days. Cells were harvested using a continuous feed centrifuge run at 2500 g at a rate of approximately 2 L/min with cooling. The resultant cell slurry was re-centrifuged in pots (2500 g, 20 min, 4° C.) and the cell paste was stored at −80° C. 342 g of cell paste was re-suspended to a final volume of 1600 mL in a buffer of 20 mM Tris-Cl pH 7.4, 150 mM NaCl, 0.1 mM EDTA, 1.3% w/v n-octyl-β-D-glucopyranoside containing 20 Complete EDTA-free Protease Inhibitor Cocktail tablets (Roche Applied Science). […]
Consider “2-Cyclopropyl-N-((3R,6S)-6-(2-hydroxypropan-2-yl)tetrahydro-2H-pyran-3-yl)thiazolo[4,5-b]pyridine-6-carboxamide and 2-Cyclopropyl-N-((3S,6R)-6-(2-hydroxypropan-2-yl)tetrahydro-2H-pyran-3-yl)thiazolo[4,5-b]pyridine-6-carboxamide [Example 24]”, for which the “Potency Range (mean pIC50)” value is listed as “** (** = pIC50 6.0-7.0)”.

The same assay, now with this note: conversion of PGH2 to PGD2 by human H-PGDS, 10 nM enzyme; mean pIC50; read-out: Potency Range (mean pIC50) (converted).
For the molecule `CS(=O)(=O)CC(O)[C@H]1CC[C@H](NC(=O)c2cnc3nc(C4CC4)sc3c2)CC1` (mixture of isomers) [Example 28, Racemic 2-cyclopropyl-N-(trans-4-(1-hydroxy-2-(methylsulfonyl)ethyl)cyclohexyl)thiazolo[4,5-b]pyridine-6-carboxamide], the IC50 is 100 to 1000 nM.

For `O=C(N[C@H]1CC[C@H](C(O)C(F)(F)F)CC1)c1cnc2nc(C3CC3)sc2c1` (mixture of isomers) [Example 32, Racemic 2-Cyclopropyl-N-(trans-4-(2,2,2-trifluoro-1-hydroxyethyl)cyclohexyl)thiazolo[4,5-b]pyridine-6-carboxamide], the IC50 is 10 to 79.4 nM.

Take `CC(C)(O)C1CC2(CC(NC(=O)c3cnc4nc(C5CC5)sc4c3)C2)C1` (racemic) [Example 15, (Racemic)-2-cyclopropyl-N-(6-(2-hydroxypropan-2-yl)spiro[3.3]heptan-2-yl)thiazolo[4,5-b]pyridine-6-carboxamide]: the IC50 was 10 to 79.4 nM.

`O=C(NC1C[C@H](O)C[C@@H](O)C1)c1cnc2nc(C3CC3)sc2c1` (mixture of isomers) [Example 41, Racemic 2-cyclopropyl-N-((3S,5S)-3,5-dihydroxycyclohexyl)thiazolo[4,5-b]pyridine-6-carboxamide]: the IC50 was 100 to 1000 nM.

For `CC(N[C@H]1CC[C@H](NC(=O)c2cnc3nc(C4CC4)sc3c2)CC1)C(F)F` (relative stereo) [Example 23, 2-Cyclopropyl-N-(trans-4-((1,1-difluoropropan-2-yl)amino)cyclohexyl)thiazolo[4,5-b]pyridine-6-carboxamide], the IC50 was 100 to 1000 nM.

Take `O=C(N[C@H]1CC[C@H](C(O)C2CC2)CC1)c1cnc2nc(C3CC3)sc2c1` (relative stereo) [Example 26, 2-Cyclopropyl-N-(trans-4-(cyclopropyl(hydroxy)methyl)cyclohexyl)thiazolo[4,5-b]pyridine-6-carboxamide]: the IC50 is 10 to 79.4 nM.

As to `CC(C)(O)[C@H]1CC2(C[C@H](NC(=O)c3cnc4nc(C5CC5)sc4c3)C2)C1` (single isomer, unassigned) [Example 42], the IC50 was 10 to 79.4 nM.

For `CC(C)(O)[C@H]1CC[C@H](NC(=O)c2cnc3cc(Br)sc3c2)CC1` [Example 1], the IC50 was 100 to 1000 nM.

With `CC(C)(O)[C@H]1CC[C@H](NC(=O)c2cnc3cc(C4CC4)sc3c2)CC1` [Example 2], the IC50 was 10 to 79.4 nM.

For `C[C@]1(O)C[C@@H](NC(=O)c2cnc3cc(Br)sc3c2)C1` [Example 3], the IC50 was 1260 to 10000 nM.

On to `C[C@]1(O)C[C@@H](NC(=O)c2cnc3cc(C4CC4)sc3c2)C1` [Example 4], for which the IC50 is 1260 to 10000 nM.

Consider `CC(C)Nc1nc2ncc(C(=O)N[C@H]3CC[C@H](C(C)(C)O)CC3)cc2s1` [Example 5], for which the IC50 is 100 to 1000 nM.

For the molecule `CC(C)N(C)c1nc2ncc(C(=O)N[C@H]3CC[C@H](C(C)(C)O)CC3)cc2s1` [Example 6], the IC50 was 10 to 79.4 nM.

Consider `CNc1nc2ncc(C(=O)N[C@H]3CC[C@H](C(C)(C)O)CC3)cc2s1` [Example 7], for which the IC50 was 100 to 1000 nM.

Consider `CN(C)c1nc2ncc(C(=O)N[C@H]3CC[C@H](C(C)(C)O)CC3)cc2s1` [Example 9], for which the IC50 was 10 to 79.4 nM.

With `CC(C)(O)C12CC(NC(=O)c3cnc4cc(Br)sc4c3)(C1)C2` [Example 11, 2-Bromo-N-(3-(2-hydroxypropan-2-yl)bicyclo[1.1.1]pentan-1-yl)thieno[3,2-b]pyridine-6-carboxamide], the IC50 was 100 to 1000 nM.

Take `CC(C)(O)C12CC(NC(=O)c3cnc4cc(C5CC5)sc4c3)(C1)C2` [Example 12, 2-Cyclopropyl-N-(3-(2-hydroxypropan-2-yl)bicyclo[1.1.1]pentan-1-yl)thieno[3,2-b]pyridine-6-carboxamide]: the IC50 was 10 to 79.4 nM.

For `CC(C)(O)C12CC(NC(=O)c3cnc4nc(C5CC5)sc4c3)(C1)C2` [Example 13, 2-Cyclopropyl-N-(3-(2-hydroxypropan-2-yl)bicyclo[1.1.1]pentan-1-yl)thiazolo[4,5-b]pyridine-6-carboxamide], the IC50 was 100 to 1000 nM.

With `CC(C)(O)[C@H]1CC[C@H](NC(=O)c2cnc3nc(C4CCC4)sc3c2)CC1` [Example 14, 2-Cyclobutyl-N-((trans)-4-(2-hydroxypropan-2-yl)cyclohexyl)thiazolo[4,5-b]pyridine-6-carboxamide], the IC50 is 10 to 79.4 nM.

With `O=C(N[C@H]1CC[C@H](O)CC1)c1cnc2nc(C3CC3)sc2c1` [Example 16, 2-Cyclopropyl-N-((trans)-4-hydroxycyclohexyl)thiazolo[4,5-b]pyridine-6-carboxamide], the IC50 was 100 to 1000 nM.

As to `C[C@]1(O)CC[C@H](NC(=O)c2cnc3nc(C4CC4)sc3c2)CC1` [Example 17, 2-Cyclopropyl-N-((trans)-4-hydroxy-4-methylcyclohexyl)thiazolo[4,5-b]pyridine-6-carboxamide], the IC50 was 1260 to 10000 nM.

With `O=C(N[C@H]1CC[C@H](OCCO)CC1)c1cnc2nc(C3CC3)sc2c1` [Example 18, 2-Cyclopropyl-N-((trans)-4-(2-hydroxyethoxy)cyclohexyl)thiazolo[4,5-b]pyridine-6-carboxamide], the IC50 was 100 to 1000 nM.

With `O=C(N[C@H]1CCNC1=O)c1cnc2nc(C3CC3)sc2c1` [Example 19, (S)-2-Cyclopropyl-N-(2-oxopyrrolidin-3-yl)thiazolo[4,5-b]pyridine-6-carboxamide], the IC50 is 100 to 1000 nM.

`O=C(N[C@H]1CC[C@H](CO)CC1)c1cnc2nc(C3CC3)sc2c1` [Example 20, 2-Cyclopropyl-N-((trans)-4-(hydroxymethyl)cyclohexyl)thiazolo[4,5-b]pyridine-6-carboxamide]: the IC50 was 100 to 1000 nM.

Turning to `O=C(N[C@H]1CC[C@H](N2CC(F)(F)C2)CC1)c1cnc2nc(C3CC3)sc2c1` [Example 21, 2-Cyclopropyl-N-((trans)-4-(3,3-difluoroazetidin-1-yl)cyclohexyl)thiazolo[4,5-b]pyridine-6-carboxamide], the IC50 is 100 to 1000 nM.

Consider `CC(C)(O)[C@H]1C[C@H](NC(=O)c2cnc3nc(C4CC4)sc3c2)C1` [Example 22, 2-Cyclopropyl-N-((trans)-3-(2-hydroxypropan-2-yl)cyclobutyl)thiazolo[4,5-b]pyridine-6-carboxamide], for which the IC50 is 100 to 1000 nM.

`CC(C)(F)c1nc2ncc(C(=O)N[C@H]3CC[C@H](C(C)(C)O)CC3)cc2s1` [Example 25, 2-(2-Fluoropropan-2-yl)-N-(trans-4-(2-hydroxypropan-2-yl)cyclohexyl)thiazolo[4,5-b]pyridine-6-carboxamide]: the IC50 is 100 to 1000 nM.
